Key:
[1] = Plasma clearance in dog at 0.1 mg/kg, iv and 3 mg/kg, po; format: ADME, organism-based, Canis lupus familiaris
[2] = Half life in dog at 0.1 mg/kg, iv and 3 mg/kg, po; format: ADME, organism-based, Canis lupus familiaris; conditions: in vivo
[3] = Unbound clearance in rat at 1 mg/kg, iv and 3 mg/kg, po; format: ADME, organism-based; conditions: in vivo
[4] = Volume of distribution at steady state in rat at 1 mg/kg, iv and 3 mg/kg, po; format: ADME, organism-based; conditions: in vivo, read-out: Vdss
[5] = Oral bioavailability in rat at 3 mg/kg; format: ADME, organism-based; conditions: in vivo
[6] = Unbound clearance in dog at 0.1 mg/kg, iv and 3 mg/kg, po; format: ADME, organism-based, Canis lupus familiaris; conditions: in vivo
[7] = Volume of distribution at steady state in dog at 0.1 mg/kg, iv and 3 mg/kg, po; format: ADME, organism-based, Canis lupus familiaris; conditions: in vivo, read-out: Vdss
[8] = Oral bioavailability in dog at 3 mg/kg; format: ADME, organism-based, Canis lupus familiaris; conditions: in vivo
[9] = Unbound average plasma concentration in human at >450 mg, bid; format: ADME
[10] = species on record: Homo sapiens; assay: Reduction in serum ureate in human at >450 mg, bid; format: functional; set-up: scale not given: the % may be the effect or the level left
[11] = Lipophilicity, log D of the compound; format: physicochemical; conditions: octanol/water
[12] = Drug level in human liver microsomes treated with 4-(3-chloro-4-(hydroxymethyl)phenoxy)-3-cyano-N-(5-fluoropyridin-2-yl)benzenesulfonamide; format: ADME
[13] = Drug level in human hepatocytes treated with 4-(3-chloro-4-(hydroxymethyl)phenoxy)-3-cyano-N-(5-fluoropyridin-2-yl)benzenesulfonamide; format: ADME, cell-based, Hepatocyte

clearance [1] [mL/min/kg]	half-life [2] [h]	CL free [3] [mL/min/kg]	Vd [4] [L/kg]	bioavailability [5] [%]	CL free [6] [mL/min/kg]	Vd [7] [L/kg]	bioavailability [8] [%]	Cp(f) [9] [nM]	logD [11]	Drug metabolism [12]	Drug metabolism [13]	SMILES	Activity [10] [%]
4.8	1.4	447	1.3	27	641	0.31	35	60	2.6	–	–	Nc1[nH]ncc1-c1cc(Cl)ccc1Oc1cc(F)c(S(=O)(=O)Nc2cscn2)cc1Cl [PF-05089771]	50
–	–	–	–	–	–	–	–	–	–	Metabolite_Detected	Metabolite_Detected	N#Cc1cc(S(=O)(=O)Nc2ccc(F)cn2)ccc1Oc1ccc(C(=O)O)c(Cl)c1	–
